US9717248B2, “Antibacterial micro- and nanoparticles comprising a chlorhexidine salt, method of production and uses thereof” (The University of Bristol, priority 2013, dated 2017)
Where two headings read alike, the source gives them in different places.

Key:
[1] = Elution of CHX from CHX-HMP functionalised materials (UV spectrophotometry); format: physicochemical
Procedure: 200 mL of the colloidal suspension was prepared using freshly-prepared reagents (to prevent hydrolysis of the HMP). The specimen was immersed in the rapidly stirred colloid for 30 s, then removed and immersed in deionised water for 10 s to rinse, and then blotted to remove excess liquid and allowed to dry in air.
8 specimens of each material coated with CHX-HMP-5 and CHX-HMP-0.5 nanoparticles were placed in individually labelled cuvettes suitable for ultraviolet spectrophotometry. Deionised water was added to the cuvettes and they were sealed tightly using cuvette lids. These were agitated on an orbital shaker rotating at 150 rpm. The cuvettes were kept sealed and were sampled for chlorhexidine concentration at intervals over a 60-90 day period. Control sets were prepared where the specimens were immersed in deionised water and where they were immersed in a 25 μM CHX solution, which is the concentration of aqueous CHX residual in the CHX-HMP-5 colloidal suspension.

[2] = tested on: S. mutans; assay: Reported MIC for S. mutans; format: cell-based; conditions: Streptococcus mutans, conversion of the reported 0.125%
[3] = tested on: S. mutans; conditions: reported; cited from earlier work
[4] = tested on: K. pneumoniae; assay: Growth of microorganisms on polyurethane specimens; format: cell-based, Klebsiella pneumoniae; set-up: key: −: complete inhibition; +: slight growth (growth observed at dilutions between 10^−1-10^−3); ++: moderate growth (growth observed at dilutions between 10^−4-10^−6); +++: high growth (growth at dilutions between 10^−7-10^−12); conditions: 24 h incubation
From the text: (§1) Extensive microbiology work has also been completed. […] Key: −complete inhibition; +slight growth (growth observed at dilutions between 10^−1-10^−3); ++ moderate growth (growth observed at dilutions between 10^−4-10^−6); +++ high growth (growth at dilutions between 10^−7-10^−12).

[5] = tested on: P aeruginosa; assay: Growth of microorganisms on polyurethane specimens; format: cell-based, Pseudomonas aeruginosa; set-up: key: −: complete inhibition; +: slight growth (growth observed at dilutions between 10^−1-10^−3); ++: moderate growth (growth observed at dilutions between 10^−4-10^−6); +++: high growth (growth at dilutions between 10^−7-10^−12); conditions: 24 h incubation
From the text: as §1

[6] = tested on: MRSA; assay: Growth of microorganisms on polyurethane specimens; format: cell-based, Staphylococcus aureus; set-up: key: −: complete inhibition; +: slight growth (growth observed at dilutions between 10^−1-10^−3); ++: moderate growth (growth observed at dilutions between 10^−4-10^−6); +++: high growth (growth at dilutions between 10^−7-10^−12); conditions: 24 h incubation in bacteria growth medium
From the text: as §1

[7] = tested on: E. coli; assay: Growth of microorganisms on polyurethane specimens; format: cell-based, Escherichia coli; set-up: key: −: complete inhibition; +: slight growth (growth observed at dilutions between 10^−1-10^−3); ++: moderate growth (growth observed at dilutions between 10^−4-10^−6); +++: high growth (growth at dilutions between 10^−7-10^−12); conditions: 24 h incubation
From the text: as §1

[8] = tested on: Methicillin-resistant Staphylococcus aureus (MRSA; NCTC13142); assay: Minimum inhibitory concentration, planktonic bacteria; format: cell-based; conditions: 16 h, 37° C., OD 620 nm, listed as 25 μM chlorhexidine
Procedure: (§2) Methicillin-resistant Staphylococcus aureus (MRSA; NCTC13142) was cultured in Mueller-Hinton media. Pseudomonas aeruginosa NCIMB 8626 (ATCC 9027) was cultured in nutrient broth (NB) or nutrient agar (NA). All cultures were incubated at 37° C. aerobically throughout the study.
(§3) Cultures were incubated for 16 h at 37° C. in aerobic conditions, optical density (CD) readings were measured at 620 nm (A620) using a standard microtitre plate reader (SpectroStar Nano; BMG Labtech).

[9] = tested on: Pseudomonas aeruginosa NCIMB 8626 (ATCC 9027); assay: as above; format: cell-based; conditions: P. aeruginosa, 16 h; value for CHX-HMP-5 is minimum tested
Procedure: as §2, §3

[10] = tested on: MRSA biofilm; assay: Static biofilm model (crystal violet); format: cell-based, Staphylococcus aureus; conditions: MRSA 48 h static biofilm, 2 h treatment; word qualifies 'disruption'
Procedure: (§4) Bacterial strains were initially grown for 16 h and these stationary phase cultures were harvested by centrifugation, and adjusted to OD650=0.1. Biofilms were grown in 50 μL appropriate media at 37° C. for 48 h, aerobically then the media was removed and discarded. Loosely adherent bacteria were removed by washing the biofilms twice with 100 μl PBS. Chlorhexidine or chlorhexidine nanoparticles diluted in PBS were added to the biofilms using a doubling dilution as described above (0-25 μM). The plates were incubated for 2 h at 37° C.; to estimate biomass, unattached cells were gently aspirated and discarded, and adherent cells were washed twice with PBS and stained with crystal violet (0.25% w/v) for 10 min; following a further two washes with PBS, cell-bound crystal violet was re-solubilized with 7% acetic acid, and absorbance measured at 595 nm (A595).

[11] = tested on: MRSA bacteria; assay: Microbiology on EVA samples functionalised with CHX nanoparticles; format: cell-based, Staphylococcus aureus; conditions: EVA specimens, 18 h incubation in 1 mL growth medium
Procedure: EVA specimens were functionalised by 30 s immersion in a colloidal suspension of CHX-HMP-5 in water followed by 10 s immersion in deionised water (“low concentration”) or without subsequent immersion in deionised water (“high concentration”). These samples were then exposed to cultures of MRSA bacteria. They were then immersed in 1 mL, growth medium and incubated for 18 h. According to the release experiments in this time the EVA specimen should release around 6 μM per m^2 material. Surface area of the specimen was 0.000182 m^2 so the expected total release should be […] CHX into 1 mL giving a resultant concentration of 1.1 μM CHX.

[12] = tested on: P. aeruginosa biofilm; assay: Static biofilm model (crystal violet); format: cell-based, Pseudomonas aeruginosa; conditions: P. aeruginosa 48 h static biofilm, 2 h treatment; word qualifies 'disruption'
Procedure: as §4

[13] = Elution of CHX from functionalised borosilicate glass surfaces (UV spectrophotometry); format: physicochemical; conditions: coated glass coverslips in deionised water, 14-day period
Procedure: Chlorhexidine based salts were prepared by combining, at room temperature and under rapid stirring, 100 mL chlorhexidine (as the digluconate salt in aqueous solution at a concentration of 10 mM) and 100 mL of one of a range of anions in aqueous solution, also at an initial concentration of 10 mM, to effect final total concentrations of 5 mM of each. The precipitate was then allowed to adhere on borosilicate glass coverslips. Coverslips (Agar Scientific, Stansted, UK) were cleaned by 10 minutes ultrasonication in acetone followed by 10 minutes ultrasonication in industrial methylated spirits and allowed to air dry. They were immersed in the 200 mL suspension described above while it was rapidly stirred using a magnetic stirring plate. Coverslips were immersed for 30 seconds, removed, immersed in deionised water for 10 seconds to rinse, blotted to remove excess liquid and allowed to dry in air. The elution of soluble CHX from the functionalised glass surfaces was examined using ultraviolet spectrophotometry. 8 specimens of each type were placed in individually labelled cuvettes suitable for ultraviolet spectrophotometry. 2.5 mL deionised water was added to the cuvettes and they were sealed tightly using cuvette lids. These were agitated on an orbital shaker rotating at 150 rpm. […]

[14] = composite resins supplemented with pulverised CHX diacetate; cited from earlier work
[15] = result in words, 'Little or no' continues 'significant release'

## N=C(NCCCCCCNC(=N)NC(=N)Nc1ccc(Cl)cc1)NC(=N)Nc1ccc(Cl)cc1 [Comparative Example 6, chlorhexidine]
[1]; [15]
  CHX Release Period: No release

## N=C(NCCCCCCNC(=N)NC(=N)Nc1ccc(Cl)cc1)NC(=N)Nc1ccc(Cl)cc1 [CHX digluconate]
[2]
  MIC: ~1400 µM
[3]
  MIC: 0.125 % by mass

## N=C(NCCCCCCNC(=N)NC(=N)Nc1ccc(Cl)cc1)NC(=N)Nc1ccc(Cl)cc1 [80 μM CHX, chlorhexidine]
[4]
  growth of microorganisms on polyurethane specimens: ++
[5]
  growth of microorganisms on polyurethane specimens: ++
[6]
  growth of microorganisms on polyurethane specimens: ++
[7]
  growth of microorganisms on polyurethane specimens: ++

## N=C(NCCCCCCNC(=N)NC(=N)Nc1ccc(Cl)cc1)NC(=N)Nc1ccc(Cl)cc1 [Comparative Example 4, chlorhexidine]
[1]; [15]
  CHX Release Period: No release

## N=C(NCCCCCCNC(=N)NC(=N)Nc1ccc(Cl)cc1)NC(=N)Nc1ccc(Cl)cc1 [compound 8, chlorhexidine]
[8]
  MIC, soluble CHX conc: not efficacious
[9]
  MIC, soluble CHX conc: P.a.: (25 μM)
[10]
  Effect on biofilm: MRSA: slight
[11]
  recovery of MRSA / efficacy against MRSA: not efficacious
[12]
  Effect on biofilm: P.a.: slight

## N=C(NCCCCCCNC(=N)NC(=N)Nc1ccc(Cl)cc1)NC(=N)Nc1ccc(Cl)cc1 [Comparative Example 5, chlorhexidine]
[1]; functionalised material in deionised water, 60-90 day period
  CHX Release Period: >60 days

## N=C(NCCCCCCNC(=N)NC(=N)Nc1ccc(Cl)cc1)NC(=N)Nc1ccc(Cl)cc1 [compound 2, chlorhexidine]
[13]
  CHX Release Period: 48 to 72 h

## N=C(NCCCCCCNC(=N)NC(=N)Nc1ccc(Cl)cc1)NC(=N)Nc1ccc(Cl)cc1 [Comparative Example 7, chlorhexidine]
[1]; [15]
  CHX Release Period: Little or no

## N=C(NCCCCCCNC(=N)NC(=N)Nc1ccc(Cl)cc1)NC(=N)Nc1ccc(Cl)cc1 [CHX diacetate]
[14]
  time to plateau of CHX release: around 7 days
